Measured values from ChEMBL document CHEMBL1127876, “Potent imidazole angiotensinII antagonists: acyl sulfonamides and acyl sulfamides as tetrazole replacements” (Bioorg Med Chem Lett, 1994).

Assays:
[1] = target: T1, Type-1 angiotensin II receptor (Oryctolagus cuniculus, UniProt P34976); assay: In vitro inhibitory activity against Angiotensin II receptor, type 1 to displace 125I-Sar,Ile8-AII in rabbit aorta; assay type: tissue-based
T1 sequence (P34976 whole entry): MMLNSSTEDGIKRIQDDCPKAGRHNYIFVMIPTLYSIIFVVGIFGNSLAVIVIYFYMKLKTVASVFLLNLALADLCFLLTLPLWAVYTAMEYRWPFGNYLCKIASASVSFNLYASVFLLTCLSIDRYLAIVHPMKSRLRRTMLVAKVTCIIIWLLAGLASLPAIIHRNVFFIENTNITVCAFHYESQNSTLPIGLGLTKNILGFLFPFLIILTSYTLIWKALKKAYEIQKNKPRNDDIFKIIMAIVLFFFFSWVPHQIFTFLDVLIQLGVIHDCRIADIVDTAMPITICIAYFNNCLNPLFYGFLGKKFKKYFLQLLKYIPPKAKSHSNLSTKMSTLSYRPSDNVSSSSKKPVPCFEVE

[2] = target: T2, Type-2 angiotensin II receptor (Rattus norvegicus, UniProt P35351); assay: In vitro inhibitory activity against angiotensin II (AT2) receptor to displace 125I-Sar,Ile8-AII in rat midbrain
T2 sequence (P35351 whole entry): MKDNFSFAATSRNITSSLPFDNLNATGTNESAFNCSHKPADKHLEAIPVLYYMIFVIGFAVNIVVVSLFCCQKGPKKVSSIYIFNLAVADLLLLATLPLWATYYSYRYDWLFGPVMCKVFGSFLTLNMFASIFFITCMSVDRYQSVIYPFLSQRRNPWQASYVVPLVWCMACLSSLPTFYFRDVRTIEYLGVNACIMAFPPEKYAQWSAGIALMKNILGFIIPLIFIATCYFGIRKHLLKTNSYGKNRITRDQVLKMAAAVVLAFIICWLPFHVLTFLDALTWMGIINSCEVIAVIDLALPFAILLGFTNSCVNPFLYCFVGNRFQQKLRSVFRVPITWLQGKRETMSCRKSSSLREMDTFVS

Row | SMILES | IC50 [1] | IC50 [2]
1 | CCCc1nc(CC)c(C=O)n1Cc1ccc(-c2ccccc2S(=O)(=O)NC(=O)C2CC2)cc1 | 12 nM | 2000 nM
2 | CCCc1nc(CC)c(C(=O)O)n1Cc1ccc(-c2ccccc2-c2nnn[nH]2)cc1 | 6 nM | > 1000 nM
3 | CCCc1nc(CC)c(C(=O)OC)n1Cc1ccc(-c2ccccc2S(=O)(=O)NC(=O)c2ccccc2)cc1 | 0.5 nM | 1000 nM
4 | CCCCc1ncc(C(=O)OC)n1Cc1ccc(-c2ccccc2-c2nn[nH]n2)cc1 | 15 nM | > 50000 nM
5 | CCCc1nc(CC)c(C(=O)O)n1Cc1ccc(-c2ccccc2S(=O)(=O)NC(=O)c2ccccc2)cc1 | 1.7 nM | 7000 nM
6 | CCCCc1ncc(C(=O)O)n1Cc1ccc(-c2ccccc2S(=O)(=O)NC(=O)C2CC2)cc1 | 5.8 nM | 5800 nM
7 | CCCCCCCC(=O)NS(=O)(=O)Nc1ccccc1-c1ccc(Cn2c(C(=O)O)cnc2CCCC)cc1 | 0.2 nM | 2300 nM
8 | CCCCc1ncc(C(=O)OC)n1Cc1ccc(-c2ccccc2S(=O)(=O)NC(=O)c2ccccc2)cc1 | 21 nM | > 1000 nM
9 | CCCCc1nc(Cl)c(C(=O)O)n1Cc1ccc(-c2ccccc2S(=O)(=O)NC(=O)c2ccccc2)cc1 | 2 nM | 9500 nM
10 | CCCCc1nc(Cl)c(C(=O)OC)n1Cc1ccc(-c2ccccc2S(=O)(=O)NC(=O)c2ccccc2)cc1 | 8.8 nM | 5300 nM
11 | CCCCc1ncc(C(=O)OC)n1Cc1ccc(-c2ccccc2S(=O)(=O)NC(=O)C2CC2)cc1 | 39 nM | 8000 nM
12 | CCCc1nc(CC)c(C(=O)O)n1Cc1ccc(-c2ccccc2S(=O)(=O)NC(=O)C2CC2)cc1 | 4.3 nM | > 10000 nM
13 | CCCCCCCC(=O)NS(=O)(=O)Nc1ccccc1-c1ccc(Cn2c(C(=O)OC)cnc2CCCC)cc1 | 1.9 nM | 500 nM

Other lines, results leading:

Row | IC50 [1] | IC50 [2] | SMILES
14 | 2.9 nM | > 50000 nM | CCCCc1ncc(C(=O)O)n1Cc1ccc(-c2ccccc2-c2nn[nH]n2)cc1
15 | 20 nM | 1800 nM | CCCCc1ncc(C(=O)OC)n1Cc1ccc(-c2ccccc2NS(=O)(=O)NC(=O)c2ccccc2)cc1
16 | 6 nM | > 10000 nM | CCCCc1ncc(C(=O)O)n1Cc1ccc(-c2ccccc2NS(=O)(=O)NC(=O)c2ccccc2)cc1
17 | 8 nM | > 30000 nM | CCCc1nc(CC)c(C=O)n1Cc1ccc(-c2ccccc2-c2nnn[nH]2)cc1
18 | 13 nM | > 50000 nM | CCCCc1nc(Cl)c(C(=O)OC)n1Cc1ccc(-c2ccccc2-c2nn[nH]n2)cc1
19 | 32 nM | 10000 nM | CCCCc1ncc(C(=O)OC)n1Cc1ccc(-c2ccccc2NS(=O)(=O)NC(=O)C2CC2)cc1
20 | 2.6 nM | 2100 nM | CCCc1nc(CC)c(C(=O)OC)n1Cc1ccc(-c2ccccc2S(=O)(=O)NC(=O)C2CC2)cc1
21 | 6.2 nM | 4500 nM | CCCCc1ncc(C(=O)O)n1Cc1ccc(-c2ccccc2S(=O)(=O)NC(=O)c2ccccc2)cc1
22 | 2.4 nM | – | CCCc1nc(CC)c(C=O)n1Cc1ccc(-c2ccccc2S(=O)(=O)NC(=O)c2ccccc2)cc1
23 | 7.4 nM | > 10000 nM | CCCCc1ncc(C(=O)O)n1Cc1ccc(-c2ccccc2NS(=O)(=O)NC(=O)C2CC2)cc1
